Data on 3 compounds can be found in patent US20230399361A1, “MACROCYCLIC PEPTIDES” (UNIVERSITY OF NOTRE DAME DU LAC, priority 2022, published 2023).

“Also recorded” adds a separate entry of the source. *1 amine or outer side, *2 acyl side, *3 side chain or, on linkers, in order; H or OH if unused. Where a SMILES comes first, the peptide text is derived from it. Primed or numbered codes have the meaning given here. [ ]: non-standard residue; d: D form. The star is where a group is joined. aIle′ = Ile with backbone amide N-amino (hydrazide NNH2), CC[C@H](C)[C@@H](C(=O)[*:2])N(N)[*:1]; aVal = Val with backbone amide N-amino (hydrazide NNH2), CC(C)[C@@H](C(=O)[*:2])N(N)[*:1]; X2 = NN([C@@H](Cc1ccc(O)cc1)C(=O)[*:2])[*:1]; X1 = CC[C@H](C)[C@@H](C(=O)[*:2])N(N)[*:1]; N(NH2)LysNH2 = NCCCC[C@@H](C(N)=O)N(N)*; X3 = CC(C)[C@@H](C(=O)[*:2])N(N)[*:1]

The target in experiment [1] is T1, tauP301L (Homo sapiens, UniProt P10636, P618L).
T1 construct: we expressed and purified full-length tau featuring a P301L mutation; His6 (N); made in house; host or cells: E. coli BL21 (DE3)
T1 sequence (P10636 1-383 isoform P10636-6 P243L): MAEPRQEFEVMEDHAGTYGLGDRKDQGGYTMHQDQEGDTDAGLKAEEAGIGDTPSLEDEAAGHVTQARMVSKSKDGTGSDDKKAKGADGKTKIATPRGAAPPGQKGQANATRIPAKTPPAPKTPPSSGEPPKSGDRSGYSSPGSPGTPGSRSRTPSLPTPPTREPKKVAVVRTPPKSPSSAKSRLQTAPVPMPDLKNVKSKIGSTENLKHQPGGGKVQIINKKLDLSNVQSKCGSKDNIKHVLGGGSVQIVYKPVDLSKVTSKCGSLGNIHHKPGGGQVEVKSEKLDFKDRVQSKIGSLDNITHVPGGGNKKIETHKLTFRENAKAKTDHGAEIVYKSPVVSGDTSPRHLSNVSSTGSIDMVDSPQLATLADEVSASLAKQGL
The experiment can be described thus: Transmission electron microscopy of heparin-induced tauP301L fibrils. It is filed as biochemical. The note with it: 10 μM tauP301L + heparin, 20 μM NAP (2-fold molar excess), 96 h. As for the experimental part: This is consistent with previous reports showing that the endpoint ThT fluorescence and fibrilization lag time for full-length tau are particularly resistant to perturbation by inhibitors. […] To confirm the effect of NAPs on the growth of mature tau fibrils, we used transmission electron microscopy (TEM) to visualize the morphology and maturity of fibrillar species. Heparin-induced tauP301L fibrils were allowed to grow over 96 h in the presence or absence of inhibitors. Untreated tauP301L afforded large, helical, and amyloid-like filamentous fibrils.
Inhibition of full-length tau fibrilization by mxyl-NAPs in TEM. To confirm the results from ThT assays, we used TEM to visualize tauP301L fibrils in the absence or presence of synthesized NAPs. As expected, heparin-induced tauP301L formed dense networks of mature fibrils (FIG. 8).
Transmission Electron Microscopy. For analyzing fibrils by TEM, aggregation was carried out under conditions similar to the assay performed above but with ThT excluded and a final reaction volume of 100 μL. Samples were incubated in a microcentrifuge tube for 4 days at 37° C. with a mixing speed of 100 rpm. A 10 μL aliquot of the sample was then applied to 400-meshed formvar-/carbon-coated copper grids and negative-stained with 2% uranyl acetate. Micrographs were obtained on a JEOL 2011 transmission electron microscope at 200 kV.

The target of experiment [2] is T1, tauP301L. The experiment is described as follows: ThT fluorescence aggregation assay of recombinant tauP301L. It is filed as biochemical. The conditions noted are these: 20 μM NAP (2-fold molar excess), 10 μM tauP301L, heparin, 48 h. The source says: NAP Tau Mimics Inhibit Tau Fibrilization In Vitro. We chose thioflavin T (ThT), an amyloid specific fluorescent dye that binds to β-sheet assemblies, to first evaluate the effect of NAPs on recombinant tau aggregation. For these studies, we expressed and purified full-length tau featuring a P301L mutation frequently observed in patients with frontotemporal dementia and Parkinsonism linked to chromosome 17 (FTDP-17). This missense mutation leads to local structure destabilization around the amyloid-forming region resulting in faster aggregation. Recombinant tauP301L aggregated in the presence of equimolar heparin sulfate (t1/2=6.5±0.4 h) starting with a very short 0.5 h lag phase, followed by a 24 h exponential growth phase. […] Compounds 2 and 4 are mono- and diaminated hexapeptides derived from the R2 PHF6* aggregation-prone sequence, whereas compounds 5, 6, 12, and 13 are all derived from the R3 PHF6 sequence. Several other NAPs had no effect on endpoint ThT fluorescence or lacked consistent inhibition across repeated experiments. […] NaOAc buffer, as evidenced by intense ThT fluorescence after 48 h (FIG. 1B).
Inhibition of full-length tau aggregation by mxyl-NAPs in a ThT assay. […] TauP301L ([…]) aggregated upon incubation with heparin over the course of 2 days, leading to high ThT fluorescence. […] We also synthesized linear and scrambled controls corresponding to each of the NAP inhibitors.
ThT Fluorescence Aggregation Assay. Recombinant tauP301L (10 μM final concentration) and NAP inhibitors (20 μM final concentration) were mixed in an aggregation buffer (100 mM sodium acetate, 10 μM ThT, 10 μM heparin, 2 mM DTT, and 0.5% DMSO, pH: 7.4) in a 96-well clear bottom black plate with a final reaction volume of 200 μL. The plate was then sealed with a clear sealing film and allowed to incubate at 37° C. with continuous shaking in a Biotek Synergy H1 microplate reader. An automated method was used to carry out ThT fluorescence measurements at an excitation wavelength of 444 nm and an emission wavelength of 485 nm at an interval of every 5 min for 48 h. Experiments were carried out in technical replicates on at least 2 different days. Every experiment included control wells that lacked tauP301L, heparin, or NAPs. The average signal from control wells lacking tau was used to subtract the background fluorescence, and the average of the first and last 10 data points of tau+heparin (no inhibitor) wells, after blank subtraction, was used to normalize the data. All data plots were generated with SigmaPlot.

The target in experiment [3] is T1, tauP301L. The experiment can be described thus: Cellular seeding assay, monomeric tauP301L co-incubated with inhibitor, HEK293 tau-RD(LM)-YFP biosensor cells. The experiment is classed as cell-based. The conditions noted are these: 0.19 μM monomeric tauP301L + heparin co-incubated 4 days, cells 48 h. An excerpt: Di-N-aminated Hexapeptides Block the Cellular Transmission of Tau Fibrils. […] This mode of propagation is important for the spread of NFTs, neuropil threads, and plaque-associated neurites—all of which contribute to the progression of Alzheimer's disease. To test whether NAP inhibitors are able to block the seeding activity of recombinant tauP301L, we employed HEK293 biosensor cells that stably express a tau-yellow fluorescent protein fusion [tau-RD(LM)-YFP]. When we treated these cells with preformed heparin-induced fibrils of tauP301L, we observed a large number of intracellular tau aggregates, as indicated by punctate fluorescence after 48 h.
Mxyl-NAPs inhibit the seeding capacity of full-length tau in a biosensor cell assay. The ability to halt the prion-like spread of tau fibrils from diseased to healthy cells using designed molecules remains a considerable challenge. […] To test whether mxyl-NAPs could block this seeding activity, we treated HEK293 biosensor cells that express a tau yellow fluorescent protein fusion (tau-RD[LM]-YFP) with tauP301L incubated in the presence or absence of inhibitors. Heparin-induced fibrils of tauP301L grown in the absence of mxyl-NAPs led to strong intracellular FRET signal resulting from endogenous tau-RD(LM)-YFP aggregation. Quantitative brightness threshold-based analysis of puncta within the biosensor cells provided a positive baseline for seed-competent recombinant tau fibrils.
Cellular Seeding Assay. The tauP301L was diluted to a final concentration of […] in an aggregation buffer containing 100 mM sodium acetate, 10 μM heparin, and 2 mM DTT, pH: 7.4. The protein was incubated in a microcentrifuge tube for 4 days at 37° C. with a shaking speed of 100 rpm. Control vials included those wherein (1) buffer was added in place of tauP301L and (2) buffer was added in place of heparin.
For each experiment, cells were plated at a density of 15,000 cells/well in 96-well tissue culture plates.
For seeding by monomeric tau, freshly purified recombinant tauP301L was co-incubated with heparin and NAPs for 4 days in an aggregation buffer at 37° C. (see the above section). Following incubation, the reaction mixture was diluted in the low-serum Opti-MEM medium, mixed with Lipofectamine 2000 in a 20:1 ratio (complex/Lipofectamine) and allowed to incubate for an additional 20 min at rt. A mixture of 0.19 μM tau+1.9 μM or 0.009 μM inhibitors (final concentrations) was added to the cells. Cells were incubated for an additional 48 h before taking measurements on a BioTek Cytation 5 cell imager and a microplate reader. 10×10 pictures/well were taken at 20× magnification under an FITC channel, and the punctate counting was carried out using built-in software. […] Every experiment included control wells (no tau, no heparin, and no NAP). All data plots were generated with SigmaPlot. Error bars shown are standard deviation from technical replicates.

With `CC[C@H](C)[C@@H](C(=O)N[C@H](C(=O)N(N)[C@@H](Cc1ccc(O)cc1)C(=O)N[C@@H](CCCCN)C(N)=O)C(C)C)N(N)C(=O)[C@H](CCC(N)=O)NC(=O)[C@@H](NC(C)=O)C(C)C` [Compound 12, Ac-Val-Gln-aIle-Val-aTyr-Lys-NH2] (Ac-VQ[X1]V[X2]K-NH2), the “tauP301L fibril morphology by TEM” value on tauP301L [1] is on record as “particularly effective at attenuating fibril growth; also recorded: non-fibrillary amorphous aggregates similar to control”. Further, the “endpoint ThT fluorescence of tauP301L” value at tauP301L [2] is given as “significantly reduce”. The “seeding capacity of tauP301L (intracellular puncta)” value (from here on “seeding capacity of tauP301L”) on tauP301L [3] (0.009 μM inhibitor) is “less pronounced”; on tauP301L [3] (1.9 μM inhibitor), “significantly reduced seeding capacity; also recorded: sufficient to prevent seeding”.

In the case of `CC[C@H](C)[C@H](NC(=O)[C@H](CCC(N)=O)NC(=O)[C@@H](NC(C)=O)C(C)C)C(=O)N(N)[C@H](C(=O)N[C@@H](Cc1ccc(O)cc1)C(=O)N(N)[C@@H](CCCCN)C(N)=O)C(C)C` [Compound 13, Ac-Val-Gln-Ile-aVal-Tyr-aLys-NH2] (Ac-VQI[X3]Y-{N(NH2)LysNH2}), the “tauP301L fibril morphology by TEM” value at tauP301L [1] is recorded as “particularly effective at attenuating fibril growth; also recorded: non-fibrillary amorphous aggregates similar to control”. In addition, the “endpoint ThT fluorescence of tauP301L” value at tauP301L [2] was “significantly reduce”. The “seeding capacity of tauP301L” value is “less pronounced” at tauP301L [3] (0.009 μM inhibitor) and “significantly reduced seeding capacity; also recorded: sufficient to prevent seeding” at tauP301L [3] (1.9 μM inhibitor).

As for “Ac-aVal-Gln-aIle-Ile-Asn-Lys-NH2 (Ac-[aVal]Q[aIle′]INK-NH2; SMILES CC[C@H](C)[C@H](NC(=O)[C@H]([C@@H](C)CC)N(N)C(=O)[C@H](CCC(N)=O)NC(=O)[C@H](C(C)C)N(N)C(C)=O)C(=O)N[C@@H](CC(N)=O)C(=O)N[C@@H](CCCCN)C(N)=O) [Compound 4]”, in the experiment with tauP301L [1], the “tauP301L fibril morphology by TEM” value is recorded as “particularly effective at attenuating fibril growth; also recorded: non-fibrillary amorphous aggregates similar to control”. Besides, the “endpoint ThT fluorescence of tauP301L” value with tauP301L [2] is listed as “significantly reduce”. Also, the “seeding capacity of tauP301L” value with tauP301L [3] (0.009 μM inhibitor) is listed as “far weaker anti-seeding activity”; with tauP301L [3] (1.9 μM inhibitor), “far weaker anti-seeding activity; also recorded: ineffective”.
